US20240368169A1 (priority 2021, published 2024)
pIC50: −log10 of the molar value.

What was measured:
[1] = biological target: recombinant poly(ADP-ribose) polymerase 1 (PARP1) (Homo sapiens, UniProt P09874); experiment: biochemical; conditions: inhibition of PARP1 enzyme activity, chemiluminescence
MDA-MB-436 cells = experiment: Growth inhibition assay against BRCA mutant human breast cancer MDA-MB-436 cell line (CCK-8, 7 days); format: cell-based
[2] = biological target: recombinant poly(ADP-ribose) polymerase 2 (PARP2) (Homo sapiens, UniProt Q9UGN5); experiment: biochemical; conditions: inhibition of PARP2 enzyme activity, chemiluminescence
Sequence of recombinant poly(ADP-ribose) polymerase 2 (PARP2) (Q9UGN5 whole entry): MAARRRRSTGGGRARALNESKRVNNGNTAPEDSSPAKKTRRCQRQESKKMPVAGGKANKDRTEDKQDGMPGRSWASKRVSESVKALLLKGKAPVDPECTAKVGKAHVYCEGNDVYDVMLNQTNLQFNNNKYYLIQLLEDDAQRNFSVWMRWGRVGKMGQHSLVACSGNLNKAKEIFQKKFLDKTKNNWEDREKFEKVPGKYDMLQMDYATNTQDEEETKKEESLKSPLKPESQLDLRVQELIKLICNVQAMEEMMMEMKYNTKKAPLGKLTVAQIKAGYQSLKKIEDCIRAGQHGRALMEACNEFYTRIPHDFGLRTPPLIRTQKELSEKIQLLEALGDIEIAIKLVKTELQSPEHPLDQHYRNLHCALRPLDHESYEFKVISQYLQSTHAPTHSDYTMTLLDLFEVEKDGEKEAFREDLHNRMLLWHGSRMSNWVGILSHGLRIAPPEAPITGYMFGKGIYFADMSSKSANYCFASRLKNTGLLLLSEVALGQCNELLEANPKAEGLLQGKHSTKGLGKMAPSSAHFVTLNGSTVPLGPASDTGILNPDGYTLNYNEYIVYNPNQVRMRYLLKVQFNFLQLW

Sequence of recombinant poly(ADP-ribose) polymerase 1 (PARP1) (P09874 whole entry): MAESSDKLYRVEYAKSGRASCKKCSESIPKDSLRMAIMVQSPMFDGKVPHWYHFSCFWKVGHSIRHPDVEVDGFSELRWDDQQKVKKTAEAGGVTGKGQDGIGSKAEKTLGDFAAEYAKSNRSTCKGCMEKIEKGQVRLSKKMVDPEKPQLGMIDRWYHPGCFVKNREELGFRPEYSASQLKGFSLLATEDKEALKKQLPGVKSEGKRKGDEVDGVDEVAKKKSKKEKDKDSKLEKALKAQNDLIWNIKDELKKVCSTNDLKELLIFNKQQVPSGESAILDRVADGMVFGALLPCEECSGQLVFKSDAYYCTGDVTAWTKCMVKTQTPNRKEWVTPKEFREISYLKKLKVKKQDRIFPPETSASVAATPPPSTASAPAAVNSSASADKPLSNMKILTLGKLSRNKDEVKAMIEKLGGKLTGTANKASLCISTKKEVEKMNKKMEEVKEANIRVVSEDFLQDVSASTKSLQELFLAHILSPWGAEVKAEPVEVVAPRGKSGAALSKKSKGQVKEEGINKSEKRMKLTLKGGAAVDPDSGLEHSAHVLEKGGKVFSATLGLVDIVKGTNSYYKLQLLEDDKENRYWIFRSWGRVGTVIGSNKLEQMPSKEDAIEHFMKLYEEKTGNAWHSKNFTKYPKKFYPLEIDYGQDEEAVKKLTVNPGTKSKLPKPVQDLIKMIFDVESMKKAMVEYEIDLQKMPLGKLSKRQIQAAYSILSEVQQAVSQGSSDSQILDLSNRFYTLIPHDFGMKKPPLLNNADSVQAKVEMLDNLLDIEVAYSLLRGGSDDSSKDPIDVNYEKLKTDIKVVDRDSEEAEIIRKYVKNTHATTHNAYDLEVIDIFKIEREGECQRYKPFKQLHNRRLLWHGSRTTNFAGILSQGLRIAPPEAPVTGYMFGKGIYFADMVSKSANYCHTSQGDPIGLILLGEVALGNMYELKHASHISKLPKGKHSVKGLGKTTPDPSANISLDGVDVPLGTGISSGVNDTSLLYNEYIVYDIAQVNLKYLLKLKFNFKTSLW

CNC(=O)c1ccc(N2CCN(Cc3cc(F)c4c5c(c(=O)[nH]c4c3)CCC5)CC2)c(F)n1 [Example 80, 7-((4-(2-fluoro-6-(methylcarbamoyl)pyridin-3-yl)piperazin-1-yl)methyl)-9-fluoro-1,2,3,5-tetrahydro-4H-cyclopenta[c]quinolin-4-one]
IC50 [1]: 2.26 nM
pIC50 (MDA-MB-436 cells): 8.63
IC50 [2]: 32 nM

CNC(=O)c1ccc(N2CCN(Cc3cc(F)c4c(c3)[nH]c(=O)c3cc(Cl)nn34)CC2)c(C)n1 [Example 87, 7-((4-(2-methyl-6-(methylcarbamoyl)pyridin-3-yl)piperazin-1-yl)methyl)-2-chloro-9-fluoropyrazolo[1,5-a]quinoxalin-4(5H)-one]
IC50 [1]: 1.22 nM
pIC50 (MDA-MB-436 cells): 9.03
IC50 [2]: 84.1 nM

CNC(=O)c1ccc(N2CCN(Cc3cc(F)c4c(c3)[nH]c(=O)c3cc(Cl)nn34)CC2)c(F)n1 [Example 88, 7-((4-(2-fluoro-6-(methylcarbamoyl)pyridin-3-yl)piperazin-1-yl)methyl)-2-chloro-9-fluoropyrazolo[1,5-a]quinoxalin-4(5H)-one]
IC50 [1]: 1.72 nM
pIC50 (MDA-MB-436 cells): 9.42
IC50 [2]: 80.3 nM

Cc1nc(C(N)=O)ccc1N1CCN(Cc2cc(F)c3c(c2)[nH]c(=O)c2ccnn23)CC1 [Example 89, 7-((4-(2-methyl-6-(carbamoyl)pyridin-3-yl)piperazin-1-yl)methyl)-9-fluoropyrazolo[1,5-a]quinoxalin-4(5H)-one]
IC50 [1]: 1.72 nM
pIC50 (MDA-MB-436 cells): 8.65
IC50 [2]: 861 nM

CCNC(=O)c1ccc(N2CCN(Cc3cc(F)c4c(c3)[nH]c(=O)c3ccnn34)CC2)c(C)n1 [Example 91, 7-((4-(2-methyl-6-(ethylcarbamoyl)pyridin-3-yl)piperazin-1-yl)methyl)-9-fluoropyrazolo[1,5-a]quinoxalin-4(5H)-one]
IC50 [1]: 1.39 nM
pIC50 (MDA-MB-436 cells): 8.55
IC50 [2]: 627 nM

Cc1nc(C(=O)NC2CC2)ccc1N1CCN(Cc2cc(F)c3c(c2)[nH]c(=O)c2ccnn23)CC1 [Example 92, 7-((4-(2-methyl-6-(cyclopropylcarbamoyl)pyridin-3-yl)piperazin-1-yl)methyl)-9-fluoropyrazolo[1,5-a]quinoxalin-4(5H)-one]
IC50 [1]: 1.38 nM
pIC50 (MDA-MB-436 cells): 8.30
IC50 [2]: 238 nM

CNC(=O)c1ccc(N2CCN(Cc3ccc4c([nH]c(=O)c5ccnn54)c3F)CC2)c(C)n1 [Example 94, 7-((4-(2-methyl-6-(methylcarbamoyl)pyridin-3-yl)piperazin-1-yl)methyl)-6-fluoropyrazolo[1,5-a]quinoxalin-4(5H)-one]
IC50 [1]: 2.69 nM
pIC50 (MDA-MB-436 cells): 8.30
IC50 [2]: > 10000 nM

CNC(=O)c1ccc(N2CCN(Cc3ccc4c([nH]c(=O)c5ccnn54)c3F)CC2)c(F)n1 [Example 95, 7-((4-(2-fluoro-6-(methylcarbamoyl)pyridin-3-yl)piperazin-1-yl)methyl)-6-fluoropyrazolo[1,5-a]quinoxalin-4(5H)-one]
IC50 [1]: 1.82 nM
pIC50 (MDA-MB-436 cells): 8.17
IC50 [2]: 886 nM

CNC(=O)c1ccc(N2CCN(Cc3ccc4c(c3)[nH]c(=O)c3c(Cl)cnn34)CC2)c(C)n1 [Example 98, 7-((4-(2-methyl-6-(methylcarbamoyl)pyridin-3-yl)piperazin-1-yl)methyl)-3-chloropyrazolo[1,5-a]quinoxalin-4(5H)-one]
IC50 [1]: 1.91 nM
pIC50 (MDA-MB-436 cells): 9.21
IC50 [2]: 41 nM

CNC(=O)c1ccc(N2CCN(Cc3ccc4c(c3)[nH]c(=O)c3cc(Cl)nn34)CC2)c(C)n1 [Example 100, 7-((4-(2-methyl-6-(methylcarbamoyl)pyridin-3-yl)piperazin-1-yl)methyl)-2-chloropyrazolo[1,5-a]quinoxalin-4(5H)-one]
IC50 [1]: 0.95 nM
pIC50 (MDA-MB-436 cells): 9.17
IC50 [2]: 65.6 nM

CNC(=O)c1ccc(N2CCN(Cc3ccc4c(c3)[nH]c(=O)c3c(C)c(C)nn34)CC2)c(C)n1 [Example 101, 7-((4-(2-methyl-6-(methylcarbamoyl)pyridin-3-yl)piperazin-1-yl)methyl)-2,3-dimethylpyrazolo[1,5-a]quinoxalin-4(5H)-one]
IC50 [1]: 4.43 nM
pIC50 (MDA-MB-436 cells): 8.61
IC50 [2]: 35.6 nM
